The values that follow come from US8318731B2, “Pyrrolopyrimidines” (Janssen Pharmaceutica NV, priority 2007, dated 2012).

One assay has as its target T1, PLK4 (h) (Homo sapiens, UniProt O00444).
T1 sequence (O00444 1-970): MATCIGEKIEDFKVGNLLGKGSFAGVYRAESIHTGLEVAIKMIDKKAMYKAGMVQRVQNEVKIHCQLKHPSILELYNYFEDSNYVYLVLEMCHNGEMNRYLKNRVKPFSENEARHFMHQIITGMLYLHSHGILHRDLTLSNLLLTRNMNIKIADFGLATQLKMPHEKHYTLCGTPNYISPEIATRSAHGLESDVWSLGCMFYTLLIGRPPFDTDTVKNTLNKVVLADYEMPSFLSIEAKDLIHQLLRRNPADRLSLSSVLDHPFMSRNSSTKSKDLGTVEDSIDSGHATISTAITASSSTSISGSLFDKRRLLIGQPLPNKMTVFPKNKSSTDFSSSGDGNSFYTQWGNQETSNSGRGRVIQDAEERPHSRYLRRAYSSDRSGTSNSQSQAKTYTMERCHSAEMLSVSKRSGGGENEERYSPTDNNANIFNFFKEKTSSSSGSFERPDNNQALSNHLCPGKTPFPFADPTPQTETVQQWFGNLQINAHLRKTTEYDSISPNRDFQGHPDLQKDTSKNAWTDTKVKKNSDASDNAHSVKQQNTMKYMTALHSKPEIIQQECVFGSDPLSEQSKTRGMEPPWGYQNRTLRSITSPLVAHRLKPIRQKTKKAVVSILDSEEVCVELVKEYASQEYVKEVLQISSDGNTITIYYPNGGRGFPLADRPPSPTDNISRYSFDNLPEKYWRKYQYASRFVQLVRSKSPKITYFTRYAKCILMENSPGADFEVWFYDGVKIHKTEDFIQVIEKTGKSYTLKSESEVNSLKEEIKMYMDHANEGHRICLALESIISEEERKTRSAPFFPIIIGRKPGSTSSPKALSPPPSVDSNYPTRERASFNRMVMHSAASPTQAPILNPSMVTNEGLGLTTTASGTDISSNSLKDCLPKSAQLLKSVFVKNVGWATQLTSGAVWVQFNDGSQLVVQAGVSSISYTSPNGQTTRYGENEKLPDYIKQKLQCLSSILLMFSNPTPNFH
Put plainly: PLK-4 human kinase scintillation proximity assay (SPA). In kind it is biochemical. As to conditions: 1 μM ATP, 60 minutes at r.t., read-out: PLK4 pIC50 (converted). The procedure: The in vitro inhibition of a panel of kinases was assessed using either the scintillation proximity assay (SPA) as described by Cook, N. D. et al., Advances in Experimental Medicine and Biology (1991), 36; p. 525-528.
In the SPA technology the activity of the kinase of interest is measured using an appropriate biotinylated substrate that is incubated with the aforementioned kinase protein in the presence of (^33P) radiolabeled ATP. (^33P) Phosphorylation of the substrate is subsequently measured through binding of the phosphorylated substrate to streptavidine coated beads that are based on the scintillant poly(vinyl toluene) (PVT-Beads). The scintillation intensity is detected by imaging on Leadseeker.
All kinases are pre-diluted to a 10× working concentration prior to addition into the assay. The composition of the dilution buffer for each kinase is detailed below.
In a final reaction volume of 30 μl, PLK4 (h) (19 μg/ml) is incubated with 50 mM Hepes pH 8.0, 10 mM MgCl2, 50 mM NaCl, 1 mM NaF, 1 mM DTT, 10 μM of peptide Biotin-RPRGQRDSSYYWE-OH, 1 μM ATP and 2 nM [γ-^33P-ATP] (6.0 μCi/ml). After incubation of 60 minutes at r.t., the reaction is stopped by addition of 40 μL of stop solution containing 8.7 mM EDTA, BSA 0.17%, 0.17% Triton X-100, 1.7 mg/ml SPA beads (GE-healthcare). The plate is centrifuged and read for Scintillation imaging on Leadseeker.
On the technique in general: In a scintillation proximity assay essentially only radioactivity close to the scintillant gives light.

Another assay deals with A2780. Put plainly: Cellular proliferation assay (Alamar blue), A2780. The settings on record: Homo sapiens, A2780, A2780 cells; 10% FCS; 72 h with compound; Alamar blue 24 h; read-out: pIC50 A2780 (converted). In kind it is cell-based. The procedure:
(§1) Cellular proliferation of these compounds was tested on a panel of different cell lines in the presence of 10% FCS serum (37° C. and 5% (v/v) CO2). In a first step these cells were seeded and incubated for 24 hours in the absence of compound. In the second step the cells were incubated for 72 hours with the compounds to be tested for 72 hours. The viable cell number was finally assessed in a standard Alamar blue cell viability assay.
(§2) The viable cell number was assessed by incubation for either 4 h (HCT-116, H1299) 6 h (U87-MG) or 24 h (A2780, PC3, MDA-MB-231) with Alamar blue (Resazurin 9 μg/ml, K-Ferrocyanide 90 μM, K-Ferricyanide 90 μM) and the converted fluorescent product was quantified on a fluorescent plate readed (544 nm/590 nm). Effect of the compounds is calculated as of on control cells.

For another assay, the system named is H1299. Put plainly: Cellular proliferation assay (Alamar blue), H1299. In kind it is cell-based. The settings on record: Homo sapiens, NCI-H1299, H1299 cells; 10% FCS; 72 h with compound; Alamar blue 4 h; read-out: pIC50 H1299 (converted). The procedure:
as §1, §2

The next assay deals with MDA-MB-231. Put plainly: Cellular proliferation assay (Alamar blue), MDA-MB-231. The settings on record: Homo sapiens, MDA-MB-231, MDA-MB-231 cells; 10% FCS; 72 h with compound; Alamar blue 24 h; read-out: pIC50 MDA/MB231 (converted). In kind it is cell-based. The procedure:
as §1, §2
On the technique in general: Resazurin is reduced to fluorescent resorufin, in cell work by metabolically active cells.

A further assay has as its system HCT-116. Put plainly: Cellular proliferation assay (Alamar blue), HCT-116. The format is cell-based. The settings on record: Homo sapiens; HCT-116 cells; 10% FCS; 72 h with compound; Alamar blue 4 h; read-out: pIC50 HCT-116 (converted). The procedure: as §1, §2
The next assay relates to PC3. Put plainly: Cellular proliferation assay (Alamar blue), PC3. The format is cell-based. As to conditions: Homo sapiens, PC-3, PC-3 cells; 10% FCS; 72 h with compound; Alamar blue 24 h; read-out: pIC50 PC-3 (converted). The procedure: as §1, §2

Turning to `COc1ccc2cc1CN(C)[C@@H](CO)C(=O)N(C)CCCc1c[nH]c3ncnc(c13)N2` [Compound 9], at PLK4 (h), the IC50 is greater than 10 µM.
As to `CN1CCCN(C)C(=O)COc2cc(ccc2OCc2ccccc2)Nc2ncnc3[nH]cc(c23)C1` [Compound 11], the IC50 on PLK4 (h) is 0.0501 µM.
Regarding `COc1ccc2cc1OCCCC(=O)NCCCN(C)Cc1c[nH]c3ncnc(c13)N2` [Compound 25], the IC50 on PLK4 (h) was 0.631 µM.
The same measure, in the same setting: the result for `CN1CCCN(C)C(=O)CCCOc2cccc(c2)Nc2ncnc3[nH]cc(c23)C1` [Compound 32] reads 0.501 µM; that for `COc1ccc2cc1OCC(=O)N[C@H](Cc1ccccc1)CN(C)CCCc1c[nH]c3ncnc(c13)N2` [Compound 39], greater than 10 µM.
Regarding `CN1CCCN(C)C(=O)CCCOc2cc(ccc2Cl)Nc2ncnc3[nH]cc(c23)C1` [Compound 43], the IC50 on PLK4 (h) is 0.501 µM.
Turning to `COc1ccc2cc1CN(C)[C@@H](Cc1ccccc1)C(=O)N(C)CCCc1c[nH]c3ncnc(c13)N2` [Compound 51], the IC50 on PLK4 (h) is greater than 10 µM.
Turning to `COc1ccc2cc1CN(C)[C@@H](CC(C)C)C(=O)N(C)CCCc1c[nH]c3ncnc(c13)N2` [Compound 52], the IC50 at PLK4 (h) is greater than 10 µM.
As for `COc1ccc2cc1CCC(=O)N(C)CCCN(C)Cc1c[nH]c3ncnc(c13)N2` [Compound 55], the IC50 at PLK4 (h) was 0.794 µM.
For the compound `COc1cc2cc(c1OC)OCCCC(=O)N(C)CCCN(C)Cc1c[nH]c3ncnc(c13)N2` [Compound 69], the IC50 was greater than 10 µM with A2780; greater than 10 µM in the assay with H1299; 2 µM at PLK4 (h); greater than 10 µM in the assay with MDA-MB-231; greater than 10 µM in the assay on HCT-116; greater than 10 µM in the assay on PC3.
With `CN1CCCN(C)C(=O)CCCOc2cc(cc(C(F)(F)F)c2)Nc2ncnc3[nH]cc(c23)C1` [Compound 83], the IC50 in the assay on A2780 is greater than 10 µM; with H1299 it was 3.98 µM; on PLK4 (h), 5.01 µM; with MDA-MB-231, greater than 10 µM; in the assay on HCT-116 it was greater than 10 µM; in the assay on PC3, greater than 10 µM.
`COc1ccc2cc1OCC(=O)N(C)CC1CN(Cc3c[nH]c4ncnc(c34)N2)C1` [Compound 89]: the IC50 with A2780 was greater than 10 µM; in the assay on H1299 it was greater than 10 µM; at PLK4 (h), 0.251 µM; with MDA-MB-231, greater than 10 µM; in the assay with HCT-116 it was greater than 10 µM; in the assay with PC3 it was greater than 10 µM.
As for `CN1CCCN(C)C(=O)COc2cc(ccc2OC2CCCC2)Nc2ncnc3[nH]cc(c23)C1` [Compound 90], the IC50 at PLK4 (h) was 0.0316 µM.
Consider `CN1CCCN(C)C(=O)COc2cc(ccc2OCC(=O)NC2CCCC2)Nc2ncnc3[nH]cc(c23)C1` [Compound 91], for which the IC50 with A2780 was 0.794 µM; in the assay with H1299, 3.16 µM; on PLK4 (h) it was 0.0251 µM; with MDA-MB-231 it was greater than 10 µM; in the assay on HCT-116, 1.58 µM; with PC3, greater than 10 µM.
As for `CN1CCN(C)C(=O)CCCCOc2cc(cc(C(F)(F)F)c2)Nc2ncnc3[nH]cc(c23)C1` [Compound 92], the IC50 in the assay on A2780 is greater than 10 µM; in the assay with H1299 it was 6.31 µM; at PLK4 (h) it was greater than 10 µM; in the assay on MDA-MB-231 it was greater than 10 µM; in the assay on HCT-116, greater than 10 µM; with PC3, greater than 10 µM.
As to `CN1CCN(C)C(=O)CCCOc2cc(cc(C(F)(F)F)c2)Nc2ncnc3[nH]cc(c23)C1` [Compound 93], the IC50 in the assay on A2780 was greater than 10 µM; in the assay on H1299 it was 1.26 µM; on PLK4 (h), 6.31 µM; with MDA-MB-231, greater than 10 µM; in the assay on HCT-116 it was greater than 10 µM; with PC3, greater than 10 µM.
With `CN1CCN(c2ccc3cc2OCCCC(=O)N(C)CCN(C)Cc2c[nH]c4ncnc(c24)N3)CC1` [Compound 94], the IC50 in the assay with A2780 is greater than 10 µM; with H1299 it was greater than 10 µM; at PLK4 (h), 5.01 µM; in the assay with MDA-MB-231 it was greater than 10 µM; in the assay with HCT-116 it was greater than 10 µM; with PC3, 10 µM.
For the compound `COc1cc2cc(c1OC)OCCCC(=O)N(C)CCN(C)Cc1c[nH]c3ncnc(c13)N2` [Compound 95], the IC50 in the assay with A2780, in the assay on H1299, at PLK4 (h), in the assay with MDA-MB-231, in the assay with HCT-116 and with PC3 was greater than 10 µM each time.
As to `COc1cc2cc(c1OC)OCC(=O)N(C)CCN(C)Cc1c[nH]c3ncnc(c13)N2` [Compound 96], the IC50 in the assay on A2780 is greater than 10 µM; with H1299, greater than 10 µM; at PLK4 (h), 5.01 µM; with MDA-MB-231, greater than 10 µM; in the assay on HCT-116 it was greater than 10 µM; with PC3 it was greater than 10 µM.
For the compound `CN1CCN(C)C(=O)COc2cc(ccc2N2CCOCC2)Nc2ncnc3[nH]cc(c23)C1` [Compound 97], the IC50 in the assay with A2780 was greater than 10 µM; with H1299, greater than 10 µM; at PLK4 (h) it was 0.794 µM; with MDA-MB-231, greater than 10 µM; in the assay on HCT-116 it was greater than 10 µM; with PC3 it was greater than 10 µM.
With `CN1CCCN(C)C(=O)COc2cc(ccc2OCCOC2CCCC2)Nc2ncnc3[nH]cc(c23)C1` [Compound 99], the IC50 with H1299 was 0.0398 µM; on PLK4 (h), 0.0251 µM; in the assay on MDA-MB-231, greater than 10 µM; in the assay with HCT-116, 0.0631 µM; with PC3 it was 6.31 µM.
With `CC(C)Oc1ccc2cc1OCC(=O)N(C)CCCN(C)Cc1c[nH]c3ncnc(c13)N2` [Compound 100], the IC50 in the assay on A2780 is 1.58 µM; in the assay on H1299 it was 0.631 µM; on PLK4 (h), 0.0501 µM; in the assay with MDA-MB-231 it was 6.31 µM; in the assay with HCT-116, 1.58 µM; with PC3, 2 µM.
For the compound `CCCOc1ccc2cc1OCC(=O)N(C)CCCN(C)Cc1c[nH]c3ncnc(c13)N2` [Compound 101], the IC50 in the assay with A2780 is 1.58 µM; with H1299, 0.794 µM; on PLK4 (h) it was 0.0398 µM; with MDA-MB-231 it was 7.94 µM; in the assay with HCT-116, 1.58 µM; with PC3 it was 2 µM.
With `O=C1CCCOc2cc(ccc2N2CCOCC2)Nc2ncnc3[nH]cc(c23)CN2CCN1CC2` [Compound 110], the IC50 on PLK4 (h) is 7.94 µM.
As to `CN1CCCN(C)C(=O)COc2cc(ccc2OC2CCOC2)Nc2ncnc3[nH]cc(c23)C1` (centres unmarked) [Compound 135], the IC50 on PLK4 (h) is 0.158 µM.
